# Several values for one entry are separate records, joined by “and”; a condition that tells them apart may be missing. Equal values may be shown once.
# Key:
# [1] = Long-term stability test of chlorogenic acid crystal form; format: physicochemical
# [2] = Residual solvent by gas chromatography (internal standard method); format: physicochemical; details: Chinese Pharmacopoeia limit 0.5%
# Description: […]; an appropriate amount of ethyl acetate was taken, weighed precisely, and N,N-dimethylformamide was added to prepare the solution containing 5 mg of ethyl acetate per 1 ml. 1 ml of the solution was accurately pipetted into a 10 ml volumetric flask, and 1 ml of the internal standard solution was precisely added, and diluted by adding N,N-dimethylformamide to the volume, and agitated to obtain the reference solution; 0.5 g of the chlorogenic acid crystal form prepared by Examples 1 and 2, and about 0.5 g of respective raw materials of each example, were taken and weighed precisely, then transferred to a 10 ml volumetric flask. 1 ml of the internal standard solution was added precisely, diluted with N,N-dimethylformamide to volume, and agitated, to obtain the testing solution. According to the gas chromatography method (the appendix V E of the second part of the Chinese Pharmacopoeia 2010), 30 m capillary column was used with 50% polyphenyl methylsiloxane as the stationary liquid, and its coating thickness was 1 μm. The column temperature was kept at 80° C. taking 1 μl of the reference solution and 1 μl of the testing solution were accurately taken, respectively, and injected into the gas chromatograph, to record the chromatogram. Calculating with the height ratio of peaks in accordance with internal standard method, the results are as follows: […]
# [3] = 0-48 months, 18±2° C., relative humidity 60±10%
# [4] = 0 month, 18±2° C., relative humidity 60±10%
# [5] = 3 months, 18±2° C., relative humidity 60±10%
# [6] = 6 months, 18±2° C., relative humidity 60±10%
# [7] = 9 months, 18±2° C., relative humidity 60±10%
# [8] = 12 months, 18±2° C., relative humidity 60±10%
# [9] = 18 months, 18±2° C., relative humidity 60±10%
# [10] = 24 months, 18±2° C., relative humidity 60±10%
# [11] = 36 months, 18±2° C., relative humidity 60±10%
# [12] = 48 months, 18±2° C., relative humidity 60±10%
structure (smiles),measurement,setting,value
"O=C(/C=C/c1ccc(O)c(O)c1)O[C@@H]1C[C@](O)(C(=O)O)C[C@@H](O)[C@H]1O [Example 1, 3-O-caffeoylquinnic acid]",Content of chlorogenic acid over the long-term stability test,[1]; [3],above 98%
same,Stability (overall conclusion of long-term test),[1]; [3],good stability
same,Appearance,[1]; [4],almost white
same,Content (%),[1]; [4],99.50% and 99.56% and 99.49%
same,Loss on drying (%),[1]; [4],2.32% and 2.31% and 2.29%
same,Related substances (%) Other 2,[1]; [4],0.140% and 0.137% and 0.144%
same,Related substances (%) Other 3,[1]; [4],0.205% and 0.214% and 0.218%
same,Related substances (%) Other 4,[1]; [4],0.045% and 0.049% and 0.048%
same,Related substances In total (%),[1]; [4],0.488% and 0.499% and 0.511%
same,Appearance,[1]; [5],almost white
same,Content (%),[1]; [5],99.47% and 99.41% and 99.43%
same,Loss on drying (%),[1]; [5],2.30% and 2.31% and 2.29%
same,Related substances (%) Other 2,[1]; [5],0.142% and 0.151% and 0.148%
same,Related substances (%) Other 3,[1]; [5],0.230% and 0.237% and 0.228%
same,Related substances (%) Other 4,[1]; [5],0.049% and 0.050% and 0.046%
same,Related substances In total (%),[1]; [5],0.523% and 0.543% and 0.525%
same,Appearance,[1]; [6],almost white
same,Content (%),[1]; [6],99.44% and 99.38% and 99.42%
same,Loss on drying (%),[1]; [6],2.31% and 2.29% and 2.28%
same,Related substances (%) Other 2,[1]; [6],0.146% and 0.154% and 0.155%
same,Related substances (%) Other 3,[1]; [6],0.234% and 0.240% and 0.231%
same,Related substances (%) Other 4,[1]; [6],0.054% and 0.056% and 0.053%
same,Related substances In total (%),[1]; [6],0.541% and 0.563% and 0.548%
same,Appearance,[1]; [7],almost white
same,Content (%),[1]; [7],99.38% and 99.30% and 99.33%
same,Loss on drying (%),[1]; [7],2.32% and 2.31%
same,Related substances (%) Other 2,[1]; [7],0.162% and 0.167% and 0.165%
same,Related substances (%) Other 3,[1]; [7],0.255% and 0.261% and 0.252%
same,Related substances (%) Other 4,[1]; [7],0.058% and 0.061% and 0.060%
same,Related substances In total (%),[1]; [7],0.591% and 0.611% and 0.595%
same,Appearance,[1]; [8],almost white
same,Content (%),[1]; [8],99.32% and 99.27% and 99.23%
same,Loss on drying (%),[1]; [8],2.28% and 2.31% and 2.29%
same,Related substances (%) Other 2,[1]; [8],0.163% and 0.168% and 0.169%
same,Related substances (%) Other 3,[1]; [8],0.260% and 0.264% and 0.265%
same,Related substances (%) Other 4,[1]; [8],0.062% and 0.063%
same,Related substances In total (%),[1]; [8],0.606% and 0.623% and 0.627%
same,Appearance,[1]; [9],almost white
same,Content (%),[1]; [9],99.18% and 99.26% and 99.24%
same,Loss on drying (%),[1]; [9],2.30% and 2.29% and 2.28%
same,Related substances (%) Other 2,[1]; [9],0.179% and 0.174%
same,Related substances (%) Other 3,[1]; [9],0.279% and 0.270% and 0.272%
same,Related substances (%) Other 4,[1]; [9],0.065% and 0.067%
same,Related substances In total (%),[1]; [9],0.660% and 0.643% and 0.647%
same,Appearance,[1]; [10],almost white
same,Content (%),[1]; [10],99.17% and 99.10% and 99.14%
same,Loss on drying (%),[1]; [10],2.32% and 2.30% and 2.31%
same,Related substances (%) Other 2,[1]; [10],0.178% and 0.187% and 0.185%
same,Related substances (%) Other 3,[1]; [10],0.278% and 0.292% and 0.286%
same,Related substances (%) Other 4,[1]; [10],0.070% and 0.074% and 0.072%
same,Related substances In total (%),[1]; [10],0.666% and 0.697% and 0.685%
same,Appearance,[1]; [11],almost white
same,Content (%),[1]; [11],99.13% and 99.05% and 99.02%
same,Loss on drying (%),[1]; [11],2.32% and 2.31%
same,Related substances (%) Other 2,[1]; [11],0.190% and 0.194% and 0.196%
same,Related substances (%) Other 3,[1]; [11],0.299% and 0.301% and 0.302%
same,Related substances (%) Other 4,[1]; [11],0.076% and 0.074% and 0.078%
same,Related substances In total (%),[1]; [11],0.713% and 0.719% and 0.732%
same,Appearance,[1]; [12],almost white
same,Content (%),[1]; [12],98.85% and 98.74% and 98.80%
same,Loss on drying (%),[1]; [12],2.34% and 2.38% and 2.36%
same,Related substances (%) Other 2,[1]; [12],0.219% and 0.222% and 0.218%
same,Related substances (%) Other 3,[1]; [12],0.303% and 0.309% and 0.306%
same,Related substances (%) Other 4,[1]; [12],0.092% and 0.095% and 0.091%
same,Related substances In total (%),[1]; [12],0.770% and 0.787% and 0.772%
same,Crystal form examination by microscope,"[1]; at the end of 12, 24, 36 and 48 months, 18±2° C., relative humidity 60±10%",single lamellar crystal
same,Stability on storage,"[1]; within 48 months, stored in the cool and dark place",does not change obviously
same,Residual solvent Ethyl acetate (%),[2]; listed as Sample obtained in Example 1,0.254%
"O=C(/C=C/c1ccc(O)c(O)c1)O[C@@H]1C[C@](O)(C(=O)O)C[C@@H](O)[C@H]1O [Raw material of Example 1, 3-O-caffeoylquinnic acid]",Residual solvent Ethyl acetate (%),[2],1.764%
"O=C(/C=C/c1ccc(O)c(O)c1)O[C@@H]1C[C@](O)(C(=O)O)C[C@@H](O)[C@H]1O [Raw material of Example 2, 3-O-caffeoylquinnic acid]",Residual solvent Ethyl acetate (%),[2],2.314%
"O=C(/C=C/c1ccc(O)c(O)c1)O[C@@H]1C[C@](O)(C(=O)O)C[C@@H](O)[C@H]1O [Sample obtained in Example 2, 3-O-caffeoylquinnic acid]",Residual solvent Ethyl acetate (%),[2],0.252%
